In patent US20100256214A1, “EPH RECEPTOR LIGANDS AND METHODS OF USE” (Burnham Institute for Medical Research, priority 2009, published 2010):

What was measured:
[1] = system: COS and HT22 cells; test: Overall tyrosine phosphorylation in COS and HT22 cells; assay type: cell-based
Description: (§1) Measurement of Receptor Tyrosine Phosphorylation in Cells—HT22 neuronal cells, which endogenously express EphA4, are derived from immortalized mouse hippocampal neurons (Li et al. (1997) Neuron 19(2), 453-463). COST cells, which endogenously express EphA2, EphB2 and the EGF receptor (EGFR), were obtained from ATCC. Both cell lines were grown in Dulbecco's Modified Eagle's Medium (DMEM) (Mediatech, Inc, Herndon, Va.) with 10% fetal bovine serum (FBS) (Hyclone, Logan, Utah) and Pen/Strep. For EphA4 immunoprecipitations, HT22 cells were serum-starved overnight in 0.5% FBS in DMEM and incubated for 15 min with the compounds or DMSO as a control. The cells were then stimulated with 0.5 μg/mL ephrin-A5 Fc, ephrin-A4 Fc or Fc for 20 min in the continued presence of the compounds. After stimulation the cells were lysed in modified RIPA buffer (1% Triton X-100, 1% Na deoxycholate; 0.1% SDS; 20 mM Tris; 150 mM NaCl; 1 mM EDTA) containing 10 μM NaF, 1 μM sodium pervanadate and protease inhibitors. The protein concentration was calculated using the BCA protein assay kit (Pierce Biotecnology, Rockford, Ill.). Cell lysates were immunoprecipitated with 4 μg anti-EphA4 antibody (Soans et al. (1994) Oncogene 9(11), 3353-3361). For EphA2 and EphB2 immunoprecipitations, serum-starved COS7 cells were stimulated with 0.1 μg/mL ephrin-A1 Fc or 0.5 μg/mL ephrin-B2 Fc, respectively. […]

[2] = molecular target: EphA4 (Mus musculus, UniProt Q03137); test: EphA4 tyrosine phosphorylation in HT22 neuronal cells; assay type: cell-based; set-up: tyrosine phosphorylation of endogenous EphA4 in HT22 neuronal cells stimulated with ephrin-A5 Fc; endogenous in cells; host or cells: HT22 mouse hippocampal neuronal cells; details: for ephrin-induced EphA4 tyrosine phosphorylation: HT22 cells stimulated with ephrin-A5 Fc; for EphA4 phosphorylation: cells stimulated with ephrin-A4
Sequence of EphA4 (Q03137 20-986): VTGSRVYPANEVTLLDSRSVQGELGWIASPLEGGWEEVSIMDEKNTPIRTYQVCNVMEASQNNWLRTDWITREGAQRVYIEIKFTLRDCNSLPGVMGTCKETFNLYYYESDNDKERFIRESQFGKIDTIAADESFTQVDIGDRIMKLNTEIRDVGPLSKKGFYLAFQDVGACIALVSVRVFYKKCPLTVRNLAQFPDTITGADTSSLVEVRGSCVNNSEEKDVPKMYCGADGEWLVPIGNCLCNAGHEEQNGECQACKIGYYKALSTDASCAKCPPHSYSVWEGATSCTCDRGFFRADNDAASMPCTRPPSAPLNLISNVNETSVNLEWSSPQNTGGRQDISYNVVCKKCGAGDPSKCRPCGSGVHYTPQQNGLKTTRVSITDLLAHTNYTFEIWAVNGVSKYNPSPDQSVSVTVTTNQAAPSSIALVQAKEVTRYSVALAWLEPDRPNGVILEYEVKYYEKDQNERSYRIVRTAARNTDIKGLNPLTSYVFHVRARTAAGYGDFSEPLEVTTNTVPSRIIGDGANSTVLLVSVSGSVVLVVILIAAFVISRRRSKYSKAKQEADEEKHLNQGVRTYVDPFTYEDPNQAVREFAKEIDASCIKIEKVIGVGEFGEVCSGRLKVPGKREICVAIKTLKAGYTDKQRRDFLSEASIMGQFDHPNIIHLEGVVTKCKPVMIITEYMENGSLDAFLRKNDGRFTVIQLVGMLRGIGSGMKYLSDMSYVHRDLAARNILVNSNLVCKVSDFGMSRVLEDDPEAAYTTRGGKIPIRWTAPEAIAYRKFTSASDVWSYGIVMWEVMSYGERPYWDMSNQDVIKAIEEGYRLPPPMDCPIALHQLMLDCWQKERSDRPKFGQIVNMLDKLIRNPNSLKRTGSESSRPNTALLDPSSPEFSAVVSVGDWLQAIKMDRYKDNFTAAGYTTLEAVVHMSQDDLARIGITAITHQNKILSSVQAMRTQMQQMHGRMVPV
Description: FIGS. 6A-6F. A. HT22 neuronal cells pretreated with the indicated concentrations of compounds 1 or 2 for 15 min were stimulated with 0.5 μg/mL ephrin-A5 Fc (+) or Fc as a control (−) for 20 min in the continued presence of the compounds. EphA4 immunoprecipitates were probed with anti-phosphotyrosine antibody (PTyr) and reprobed for EphA4. C indicates immunoprecipitations performed with control antibodies from non-immunized rabbits. […] Error bars represent the standard error from 4 experiments for compound 1 and 3 experiments for compound 2. […] C. COS7 cells pretreated with the indicated concentrations of compounds 1 or 2 for 15 min were stimulated with 0.1 μg/mL ephrin-A1 Fc or Fc as a control in the continued presence of the compounds. EphA2 immunoprecipitates were probed with anti-phosphotyrosine antibody (PTyr) and reprobed for EphA2. C indicates immunoprecipitations performed with control antibodies. […] Error bars represent the standard error from 2 experiments. Statistical analyses were performed as in (B). HUVE cells were left unstimulated or stimulated with TNFα for 2 hours in the presence of 400 μM compound 1. Duplicate untreated samples are shown. C indicates immunoprecipitations performed with control antibodies. EphA2 immunoprecipitates were probed with anti-phosphotyrosine antibody (PTyr) and reprobed for EphA2. Levels of EphA2 phosphorylation quantified from immunoblots and normalized to the amount of immunoprecipitated EphA2 were also performed. […] The same protocol described in (C) was used, except that COS7 cells were stimulated with 0.5 μg/mL of ephrin-B2 Fc and the EphB2 receptor was immunoprecipitated. F. COS7 cells pretreated with the indicated concentrations of compounds 1 or 2 were stimulated with EGF (+) or left unstimulated (−). Lysates were probed with anti-phosphotyrosine antibody (PTyr) and reprobed for the EGF receptor.
as §1, with “After stimulation the cells were lysed in modified RIPA buffer (1% Triton X-100, 1% Na deoxycholate; 0.1% SDS; 20 mM Tris; 150 mM NaCl; 1 mM EDTA) containing 10 μM NaF, 1 μM sodium pervanadate and protease inhibitors.” left out, “Ill.).” for “Ill.). Cell lysates were immunoprecipitated with 4 μg anti-EphA4 antibody (Soans et al. (1994) Oncogene 9(11), 3353-3361). For EphA2 and EphB2 immunoprecipitations, serum-starved COS7 cells were stimulated with 0.1 μg/mL ephrin-A1 Fc or 0.5 μg/mL ephrin-B2 Fc, respectively.”

Compound	overall tyrosine phosphorylation [1]	ephrin-induced EphA4 tyrosine phosphorylation [2]	EphA4 phosphorylation [2]
Cc1ccc(C)n1-c1ccc(C(=O)O)c(O)c1 [compound 1, 4-(2,5-dimethyl-pyrrol-1-yl)-2-hydroxy-benzoic acid]	did not inhibit	blocked	did not inhibit
Cc1ccc(C)n1-c1ccc(O)c(C(=O)O)c1 [compound 2, 5-(2,5 dimethyl-pyrrol-1-yl)-2-hydroxy-benzoic acid]	did not inhibit	blocked	did not inhibit
